Experimental data published in patent publication US20150284375A1 (AJINOMOTO CO., INC., priority 2012, published 2015).

target: T1, human TRPA1 (Homo sapiens, UniProt O75762); experiment: Measurement of TRPA1 antagonist activity (intracellular calcium increase, FLIPR, allylisothiocyanate stimulation); type: cell-based; details: 293T cells transfected with human TRPA1; allylisothiocyanate 20 μM; concentration for 50% inhibitory rate; read-out: antagonism hTRPA1
T1 construct: expressed in transfected cells; host or cells: Human embryonic kidney-derived 293T cells, transiently transfected with the pcDNA3.1/zeo(+) human TRPA1 plasmid
Excerpt: Measurement of TRPA1 Antagonist Activity
Human TRPA1 Expression Plasmid
As cDNA encoding human TRPA1 (GenBank accession No. […]), a commercially available product was purchased (manufactured by Kazusa DNA Research Institute, clone No.: pFN21AB7348, item No.: FHC07217). Using this as a template, full-length human TRPA1 gene was amplified using the primer sequences shown below, by reaction using DNA polymerase (manufactured by Stratagene, trade name: PfuUltra High-Fidelity DNA Polymerase).
A recognition site (underlined) of restriction enzyme HindIII was added to the 5′ side, and XbaI site (underlined) was added to the 3′ side, and GTT of the template sequence was changed to termination codon TAG (bold). The obtained double stranded DNA was enzyme-digested with HindIII and XbaI, and introduced into a multicloning site of expression plasmid pcDNA3.1/zeo(+) (manufactured by Invitrogen) to give a human TRPA1 expression plasmid.
Human embryonic kidney-derived 293T cells were cultured in Dulbecco's Modified Eagle Medium containing 10% fetal bovine serum, 10 unit penicillin, and 10 μg streptomycin, plated on a petri dish having a diameter of 10 cm at 3×10^6 cells, and cultured for 24 hr. A medium containing a reduced amount of serum (manufactured by Invitrogen, trade name: OPTI-MEM, 600 μL), a gene insertion reagent (manufactured by Mirus Bio, trade name: Mirus TransIT-293, 18 μL), and human TRPA1 expression plasmid (6 μg) were mixed, the total amount of the mixture was added to the cells on the petri dish to allow for gene transfer. The cells were recovered about 8 hr later, plated on a poly-D-lysine coated 384 well black/clear bottom plate at 7,500-12,000 cells/well, and cultured overnight.
Measurement of Intracellular Calcium Increase
The 384 well plate was recovered, and the medium was removed. A calcium-bonded fluorescent indicator (manufactured by Molecular Device, trade name: Calcium4 Assay Kit, 40 μL) dissolved in assay buffer (1×HBSS, 20 mM HEPES, pH 7.2) was added, and the cells were stained in a 37° C. incubator for 1 hr. The cells were taken out at room temperature and left standing for 15 min or more. A test substance (10 μL) was added by a 384 well type dispenser, and the mixture was incubated at room temperature for 10 min. Then, allylisothiocyanate (12.5 μL) at a final concentration of 20 μM was added by a fluorescence imaging plate reader (manufactured by Molecular Device, FLIPR), and changes in the relative fluorescence intensity were measured for 5 min.
Test Substance Preparation
The test substance was dissolved in dimethyl sulfoxide and serially diluted with an assay buffer containing 0.1% bovine serum albumin (1×HBSS, 20 mM HEPES, pH 7.2) to a 5-fold concentration of the evaluation concentration. Allylisothiocyanate, which is a known TRPA1 activator, was dissolved in dimethyl sulfoxide to 100 mM, and further diluted 5-fold (100 μM) of the final concentration, like the test substance.
Calculation of Antagonist Activity
Under the test substance-free conditions, the maximum variation range of the fluorescence intensity before and after allylisothiocyanate stimulation was defined to be 100% activity rate, and the variation range before and after buffer stimulation was defined as 0% activity rate. The activity rate on addition of the test substance was determined, and the numerical value obtained by subtracting the activity rate from 100 was defined to be an inhibitory rate. 1050, which is the concentration of the test substance necessary for reaching the 50% inhibitory rate, was calculated from the sigmoid approximate curve by a spreadsheet software Excel-Fit.

T1 sequence (O75762 whole entry): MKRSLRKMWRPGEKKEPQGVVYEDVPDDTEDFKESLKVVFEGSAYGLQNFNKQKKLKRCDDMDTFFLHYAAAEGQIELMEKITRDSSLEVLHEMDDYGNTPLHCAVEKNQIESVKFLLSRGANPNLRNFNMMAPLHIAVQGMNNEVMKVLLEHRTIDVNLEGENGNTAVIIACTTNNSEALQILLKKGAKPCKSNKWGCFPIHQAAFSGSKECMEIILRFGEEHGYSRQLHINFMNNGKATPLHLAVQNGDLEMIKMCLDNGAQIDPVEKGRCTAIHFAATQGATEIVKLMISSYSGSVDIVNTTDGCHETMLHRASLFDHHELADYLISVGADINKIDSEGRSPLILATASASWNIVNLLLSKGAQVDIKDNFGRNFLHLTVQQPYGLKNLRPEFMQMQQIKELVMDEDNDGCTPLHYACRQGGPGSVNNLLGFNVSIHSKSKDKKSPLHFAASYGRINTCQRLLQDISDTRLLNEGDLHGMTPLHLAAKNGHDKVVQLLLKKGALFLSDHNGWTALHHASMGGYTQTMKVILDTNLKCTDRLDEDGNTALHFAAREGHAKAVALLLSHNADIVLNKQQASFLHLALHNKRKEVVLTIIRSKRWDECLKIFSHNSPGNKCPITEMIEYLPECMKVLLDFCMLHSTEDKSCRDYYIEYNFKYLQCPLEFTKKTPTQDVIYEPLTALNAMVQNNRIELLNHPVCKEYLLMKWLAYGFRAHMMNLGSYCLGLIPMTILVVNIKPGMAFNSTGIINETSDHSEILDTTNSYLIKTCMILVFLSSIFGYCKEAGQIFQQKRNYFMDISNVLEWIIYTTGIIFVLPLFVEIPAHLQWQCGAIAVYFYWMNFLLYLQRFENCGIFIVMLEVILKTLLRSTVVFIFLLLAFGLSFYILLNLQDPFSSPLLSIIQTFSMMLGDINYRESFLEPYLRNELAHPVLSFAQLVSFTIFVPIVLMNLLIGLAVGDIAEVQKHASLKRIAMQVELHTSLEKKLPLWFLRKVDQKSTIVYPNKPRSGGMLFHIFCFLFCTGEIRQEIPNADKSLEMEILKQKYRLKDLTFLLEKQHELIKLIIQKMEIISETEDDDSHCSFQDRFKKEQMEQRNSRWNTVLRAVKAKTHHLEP

In order of rising IC50:
1. O=C(NCc1cccc(Oc2ccc(C(F)(F)F)cc2)c1)[C@@H]1CCCN1S(=O)(=O)c1ccc(Cl)s1 [Example 15, (2S)-1-(5-chlorothiophene-2-sulfonyl)-N-({3-[4-(trifluoro-methyl)phenoxy]phenyl}methyl)pyrrolidine-2-carboxamide]  15 nM
2. O=C(NCc1cccc(Oc2cccc(Cl)c2)c1)[C@@H]1CCCN1S(=O)(=O)c1ccc(Cl)s1 [Example 21, (2S)-N-{[3-(3-chlorophenoxy)phenyl]methyl}-1-(5-chloro-thiophene-2-sulfonyl)pyrrolidine-2-carboxamide]  45 nM
3. O=C(NCc1cccc(Oc2cccc(F)c2)c1)[C@@H]1CCCN1S(=O)(=O)c1ccc(Cl)s1 [Example 22, (2S)-1-(5-chlorothiophene-2-sulfonyl)-N-{[3-(3-fluoro-phenoxy)phenyl]methyl}pyrrolidine-2-carboxamide]  56 nM
4. O=C(NCc1cccc(Oc2cccc(OC(F)(F)F)c2)c1)[C@@H]1CCCN1S(=O)(=O)c1ccc(Cl)s1 [Example 20, (2S)-1-(5-chlorothiophene-2-sulfonyl)-N-({3-[3-(trifluoro-methoxy)phenoxy]phenyl}methyl)pyrrolidine-2-carboxamide]  71 nM
5. O=C(NCc1cccc(Oc2cccc(C(F)(F)F)c2)c1)[C@@H]1CCCN1S(=O)(=O)c1ccc(Cl)s1 [Example 19, (2S)-1-(5-chlorothiophine-2-sulfonyl)-N-({3-[3-(trifluoro-methyl)phenoxy]phenyl}methyl)pyrrolidine-2-carboxamide]  80 nM
6. O=C(NCc1ccc(Oc2cccc(OC(F)(F)F)c2)cc1)[C@@H]1CCCN1S(=O)(=O)c1ccc(Cl)s1 [Example 7, (2S)-1-(5-chlorothiophene-2-sulfonyl)-N-({4-[3-(trifluoromethoxy)phenoxy]phenyl}methyl)pyrrolidine-2-carboxamide]  81 nM
7. O=C(NCc1ccc(Oc2ccnc(C(F)(F)F)c2)cc1)[C@@H]1CCCN1S(=O)(=O)c1ccc(Cl)s1 [Example 12, (2S)-1-(5-chlorothiophene-2-sulfonyl)-N-((4-{[2-(trifluoro-methyl)-4-pyridyl]oxy}phenyl)methyl)pyrrolidine-2-carboxamide]  87 nM
8. O=C(NCc1ccc(Oc2ccc(OC(F)(F)F)cc2)cc1)[C@@H]1CCCN1S(=O)(=O)c1ccc(Cl)s1 [Example 3]  88 nM
9. O=C(NCc1ccc(Oc2ccc(Cl)cc2)cc1)[C@@H]1CCCN1S(=O)(=O)c1ccc(Cl)s1 [Example 4, (2S)-N-{[4-(4-chlorophenoxy)phenyl]methyl}-1-(5-chlorothiophene-2-sulfonyl)pyrrolidine-2-carboxamide]  100 nM
10. O=C(NCc1ccc(Oc2cccc(C(F)(F)F)c2)cc1)[C@@H]1CCCN1S(=O)(=O)c1ccc(Cl)s1 [Example 6, (2S)-1-(5-chlorothiophene-2-sulfonyl)-N-({4-[3-(trifluoromethyl)phenoxy]phenyl}methyl)pyrrolidine-2-carboxamide]  100 nM
11. O=C(NCc1ccc(Oc2cccc(Cl)c2)cc1)[C@@H]1CCCN1S(=O)(=O)c1ccc(Cl)s1 [Example 8, (2S)-N-{[4-(3-chlorophenoxy)phenyl]methyl}-1-(5-chlorothiophene-2-sulfonyl)pyrrolidine-2-carboxamide]  100 nM
12. O=C(NCc1cccc(Oc2ccc(OC(F)(F)F)cc2)c1)[C@@H]1CCCN1S(=O)(=O)c1ccc(Cl)s1 [Example 16, (2S)-1-(5-chlorothiophene-2-sulfonyl)-N-({3-[4-(trifluoro-methoxy)phenoxy]phenyl}methyl)pyrrolidine-2-carboxamide]  100 nM
13. O=C(NCc1cccc(Oc2ccc(Cl)cc2)c1)[C@@H]1CCCN1S(=O)(=O)c1ccc(Cl)s1 [Example 17, (2S)-N-{[3-(4-chlorophenoxy)phenyl]methyl}-1-(5-chlorothiophene-2-sulfonyl)pyrrolidine-2-carboxamide]  120 nM
14. O=C(NCc1ccc(Oc2ccc(F)cc2)cc1)[C@@H]1CCCN1S(=O)(=O)c1ccc(Cl)s1 [Example 5, (2S)-1-(5-chlorothiophene-2-sulfonyl)-N-{[4-(4-fluorophenoxy)phenyl]methyl)pyrrolidine-2-carboxamide]  130 nM
15. O=C(NCc1cccc(Oc2ccc(F)cc2)c1)[C@@H]1CCCN1S(=O)(=O)c1ccc(Cl)s1 [Example 18, (2S)-1-(5-chlorothiophene-2-sulfonyl)-N-{[3-(4-fluoro-phenoxy)phenyl]methyl}pyrrolidine-2-carboxamide]  130 nM
16. O=C(NCc1ccc(Oc2cccc(F)c2)cc1)[C@@H]1CCCN1S(=O)(=O)c1ccc(Cl)s1 [Example 9, (2S)-1-(5-chlorothiophene-2-sulfonyl)-N-{[4-(3-fluoro-phenoxy)phenyl]methyl}pyrrolidine-2-carboxamide]  170 nM
17. O=C(NCc1ccc(Oc2ccnc(Cl)c2)cc1)[C@@H]1CCCN1S(=O)(=O)c1ccc(Cl)s1 [Example 13, (2S)-N-({4-[(2-chloro-4-pyridyl)oxy]phenyl}methyl)-1-(5-chlorothiophene-2-sulfonyl)pyrrolidine-2-carboxamide]  180 nM
18. O=C(NCc1ccc(Oc2ccc(F)c(Cl)c2)cc1)[C@@H]1CCCN1S(=O)(=O)c1ccc(Cl)s1 [Example 11, (2S)-N-{[4-(3-chloro-4-fluoro-phenoxy)phenyl]methyl}-1-(5-chlorothiophene-2-sulfonyl)pyrrolidine-2-carboxamide]  200 nM
19. O=C(NCc1ccc(Oc2ccc(C(F)(F)F)cc2)cc1)[C@@H]1CCCN1S(=O)(=O)c1ccc(Cl)s1 [Example 2]  210 nM
20. O=C(NCc1ccc(Oc2ccccc2)cc1)[C@@H]1CCCN1S(=O)(=O)c1ccc(Cl)s1 [Example 1, (2S)-1-(5-chlorothiophene-2-sulfonyl)-N-[(4-phenoxyphenyl)methyl]pyrrolidine-2-carboxamide]  220 nM
21. O=C(NCc1cccc(Oc2ccccc2)c1)[C@@H]1CCCN1S(=O)(=O)c1ccc(Cl)s1 [Example 14, (2S)-1-(5-chlorothiophene-2-sulfonyl)-N-[(3-phenoxyphenyl)methyl]pyrrolidine-2-carboxamide]  240 nM
22. O=C(NCc1ccc(Oc2ccccc2C(F)(F)F)cc1)[C@@H]1CCCN1S(=O)(=O)c1ccc(Cl)s1 [Example 10, (2S)-1-(5-chlorothiophene-2-sulfonyl)-N-({4-[2-(trifluoro-methyl)phenoxy]phenyl}methyl)pyrrolidine-2-carboxamide]  450 nM

same assay, conditions: allylisothiocyanate 20 μM stimulation, FLIPR calcium assay; read-out: antagonism hTRPA1

In order of rising IC50:
1. CC(Oc1cccc(CNC(=O)[C@@H]2CCCN2S(=O)(=O)c2ccc(F)cc2)c1)c1ccc(Cl)cc1 (stereo in doubt) [Example 145, (2S)-N-[[3-[(1R)-1-(4-chlorophenyl)ethoxy]phenyl]methyl]-1-(4-fluorophenyl)sulfonyl-pyrrolidine-2-carboxamide]  65 nM
2. CC(Oc1cccc(CNC(=O)[C@@H]2CCCN2S(=O)(=O)c2ccc(F)cc2)c1)c1ccccc1 (stereo in doubt) [Example 143, (2S)-1-(4-fluorophenyl)sulfonyl-N-[[3-[(1R)-1-phenylethoxy]phenyl]methyl]pyrrolidine-2-carboxamide]  190 nM
3. O=C(NCc1cccc(Oc2ccc(C(F)(F)F)cc2)c1)[C@@H]1CC(F)CN1S(=O)(=O)c1ccc(F)cc1 (stereo in doubt) [Example 158, (2S,4R)-4-fluoro-1-(4-fluorophenyl)sulfonyl-N-[[3-[4-(trifluoromethyl)phenoxy]phenyl]methyl]pyrrolidine-2-carboxamide]  280 nM
